{"source": "patent US6080780A", "about": "“Use of nitroflavonoids for the treatment of anxiety” (University of Strathclyde, priority 1995, dated 2000)", "key": {"[1]": {"target": "central benzodiazepine receptor", "assay": "[3H]-FNZ binding to crude synaptosomal membranes from rat CNS regions", "parameters": "species or system rat (Wistar)", "conditions": "read-out: Ki, [3H]-FNZ binding", "method": "(§1) Adult male Wistar rats weighing 250 g were used for biochemical experiments. Adult male Swiss male weighing 25-30 g were used for pharmacological assays except for inhibitory avoidance and tail flick tests were done in rats. Animals were housed in a controlled environment, with free access to food and water and maintained on a 12 h/12 h day/night cycle.\n(§2) Displacement curves were performed using [^3 ]-FNZ or [^3 H]-zolpidem ([^3 H]-ZOLP) as radioligands in washed crude synaptosomal membranes from rat cerebral cortex, cerebellum, hippocampus, striatum or spinal cord. Membrane preparations were carried out according to Medina et al. (1990). Briefly, brains were rapidly dissected out on ice and the different structures were homogenized in 10 volumes of 0.32 M sucrose and centrifuged at 900×g for 10 min. The resulting supernatant was centrifuged at 100,000×g for 30 min and the pellet washed twice in 25 mM Tris HCl buffer pH 7.4 at 100,000×g for 30 min, and stored at -20° C. until used.\nFor [^3 H]-FNZ (84 Ci/mmol, NEN) displacement curves, different concentrations of DNF (0.3 nM to 1 μM) were added to 0.3 mg membrane protein suspended in 1 ml of 25 mM Tris HCl buffer in presence of 0.6 nM of the radioligand. Protein determination was carried out by using the method of Lowry et al. (1951). Nonspecific binding (<5%) was determined in parallel incubations with 10 μM FNZ (Hoffmann-La Roche). The incubation was carried out at 4° C. for 2 h. The assays were determined by filtration under vacuum through Whatman GF/A glass fiber filters, and two washes with 3 ml each of incubation medium. Filters were dried and counted after the addition of 5 ml 2,5-diphenyl-oxazole (PPO)-xylene as scintillation fluid."}, "[2]": {"tested_on": "benzodiazepine (BDZ-R) receptor", "assay": "3H-Flunitrazepam binding to extensively washed bovine cerebral cortical membranes", "method": "Non-specific nitration of the flavone nucleus yielded the two nitrated flavone (II) and (IIa). […] Briefly, ^3 H-FNZ binding was carried out as described by Levy de Stein, M., Medina, J. H., De Robertis E., Mol. Brain Res. 1985, 5, 9-15. In brief, for each assay, triplicate samples of the membranes, containing 0.2 to 0.4 mg protein were suspended in a final volume of 1 mL of 0.25 mM Tris-HCl buffer, pH 7.3. The incubation was carried out at 4° C. for 60 minutes with 0.6 nM ^3 -FNZ. To study the binding saturation, a range of 0.3 to 10 nM ^3 H-FNZ was used. Non-specific binding was determined in parallel incubations in the presence of 3 μM FNZ, and represented 5-15% of total. The assays were terminated by filtration under vacuum though Whatman GF/A glass-fiber filters, and three washes with 3 mL each of incubation medium. Filters were dried and counted after the addition of 5 mL of 2,5-diphenyloxazole/xylene as scintillation fluid. Bovine cerebral cortical membranes were treated substantially following the method of Medina, J. H., De Robertis, E. J., J. Neurochem. 1985, 44, 1340-1345."}, "[3]": {"target": "T1, central benzodiazepine receptor type I (Rattus norvegicus, UniProt P18508+P62813)", "T1 construct": "washed crude synaptosomal membranes from rat cerebral cortex; from tissue; host or cells: Wistar rat cerebral cortex, striatum, cerebellum (crude synaptosomal membranes)", "T1 sequence (P62813 28-455)": "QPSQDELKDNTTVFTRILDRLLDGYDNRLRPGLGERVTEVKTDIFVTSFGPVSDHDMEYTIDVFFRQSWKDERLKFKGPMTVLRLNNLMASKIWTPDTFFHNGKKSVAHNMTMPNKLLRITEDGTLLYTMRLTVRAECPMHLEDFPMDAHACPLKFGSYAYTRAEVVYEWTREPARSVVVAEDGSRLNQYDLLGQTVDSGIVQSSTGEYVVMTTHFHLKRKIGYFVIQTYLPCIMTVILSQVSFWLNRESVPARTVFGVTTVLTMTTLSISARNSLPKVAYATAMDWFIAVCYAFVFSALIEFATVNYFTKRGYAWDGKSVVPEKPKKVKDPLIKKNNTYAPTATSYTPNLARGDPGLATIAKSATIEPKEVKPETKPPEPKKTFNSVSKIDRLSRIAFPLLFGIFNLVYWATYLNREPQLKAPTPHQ", "T1 sequence (P18508 39-466)": "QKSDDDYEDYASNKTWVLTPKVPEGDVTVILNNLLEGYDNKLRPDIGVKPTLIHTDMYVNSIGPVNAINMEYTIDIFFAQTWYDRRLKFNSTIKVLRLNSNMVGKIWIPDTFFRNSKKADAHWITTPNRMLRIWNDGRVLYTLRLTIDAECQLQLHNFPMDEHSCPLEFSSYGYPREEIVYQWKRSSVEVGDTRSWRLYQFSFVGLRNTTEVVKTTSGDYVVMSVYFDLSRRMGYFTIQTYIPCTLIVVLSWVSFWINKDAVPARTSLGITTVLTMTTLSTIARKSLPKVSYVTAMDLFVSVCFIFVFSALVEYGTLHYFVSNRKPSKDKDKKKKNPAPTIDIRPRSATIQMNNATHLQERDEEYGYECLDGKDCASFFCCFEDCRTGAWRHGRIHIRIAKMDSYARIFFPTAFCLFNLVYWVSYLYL", "T1 sequence (P63138 25-474 partner limits assumed)": "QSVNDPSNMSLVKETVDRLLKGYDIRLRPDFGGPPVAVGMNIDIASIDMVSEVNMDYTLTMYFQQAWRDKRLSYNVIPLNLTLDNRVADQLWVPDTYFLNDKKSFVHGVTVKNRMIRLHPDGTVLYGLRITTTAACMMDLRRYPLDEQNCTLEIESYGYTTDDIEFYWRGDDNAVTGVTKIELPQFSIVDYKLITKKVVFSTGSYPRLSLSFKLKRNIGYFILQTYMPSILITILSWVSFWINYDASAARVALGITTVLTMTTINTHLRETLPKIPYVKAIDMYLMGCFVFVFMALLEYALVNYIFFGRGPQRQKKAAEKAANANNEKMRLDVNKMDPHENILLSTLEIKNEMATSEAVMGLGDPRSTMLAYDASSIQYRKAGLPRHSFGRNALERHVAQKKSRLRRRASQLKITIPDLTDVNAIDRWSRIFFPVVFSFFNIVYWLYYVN", "assay": "[3H]-zolpidem binding to rat synaptosomal membranes", "parameters": "species or system rat (Wistar)", "conditions": "read-out: Ki, [3H]-ZOLP binding", "method": "as §1, §2\nFor [^3 H]-ZOLP (50.8 Ci/mmol, NEN) binding assays we used the technique of Arbilla et al. (1986), slightly modified as follows: displacement curves were done with 1 nM of the radioligand and 10 μM zolpidem to determine the nonspecific binding (<15%). The incubation of the samples (0.4 mg protein in 1 ml of 50 mM Tris HCl buffer, pH 7.4, 120 mM NaCl, 5 mM KCl) was carried out at 4' C. during 30 min. […]"}, "rats": {"tested_on": "rats", "assay": "Tail-flick test in rats", "type": "in vivo, rat", "method": "This test was performed according to Siegfried et al. (1987). Analgesia was assessed with a tail-flick apparatus. Rats were wrapped in a towel and placed on the apparatus; the light source positioned below the tail was focused on a point 2.3 cm rostral to the tip of the tail. Deflection of the tail activated a photocell and automatically terminated the trial. Light intensity was adjusted so as to obtain a baseline tail-flick latency (TFL) of 3-6 s. A cut-off time of 10 s was used to prevent tissue damage. Briefly, the general procedure was as follows: a baseline TFL value was obtained for each animal. Following this, the rats were placed alone in a waiting cage. TFL value was measured 1 h after an i.p. injection of vehicle or DNF."}, "β adrenergic receptors": {"tested_on": "β adrenergic receptors", "assay": "[3H]-dihidroalprenolol binding", "conditions": "20 μM; data not shown", "method": "Additional binding studies were performed as described elsewhere: [^3 ]-prazosin binding for α1 adrenergic receptors (Medina et al., 1984), [^3 H]-dihidroalprenolol binding for β adrenergic receptors (Medina et al. 1984), [^3 H]-quinuclinidyl benzylate binding for muscarinic cholinergic receptors (Jerusalinksy et al., 1983), [^3 H]-muscimol binding for GABAλ receptors (Medina et al., 1983) and [^3 H]-8-Hydroxydipropylaminotetralin ([^3 H]--OH--DPAT) binding for serotonin (5-HTlλ) receptors (Nenonene et al., 1984)."}, "[4]": {"target": "central benzodiazepine receptors (BDZ-Rs)", "assay": "3H-FNZ binding to rat brain synaptosomal membranes (Section 3)", "conditions": "rat cerebral cortex; read-out: Ki, 3H-FNZ binding", "method": "In brief, for each assay, triplicate samples of the membranes, containing 0.2 to 0.4 mg protein were suspended in a final volume of 1 mL of 0.25 mM Tris--HCl buffer, pH 7.3. The incubation was carried out at 4° C. for 60 min with 0.6 nM ^3 H--FNZ. to study the binding saturation, a range of 0.3 to 10 nM ^3 H--FNZ was used. […] The assays were terminated by filtration under vacuum through Whatman GF/A glass-fiber filters, and three washes with 3 mL each of incubation medium. Filters were dried and counted after the addition of 5 mL of 2,5-diphenyloxazole/xylene as scintillation fluid.\nThe binding of ^3 H--FNZ was carried out as for (i) above."}}, "note": "Where two headings read alike, the source gives them in different places."}
{"smiles": "O=c1cc(-c2cccc([N+](=O)[O-])c2)oc2ccc([N+](=O)[O-])cc12", "note": "[Compound (II), 6,3'-dinitroflavone]", "values": [{"measurement": "Ki", "setting": "[1]; rat cerebral cortex", "result": "25.9 ± 3.1", "unit": "nM"}, {"measurement": "Ki", "setting": "[1]; rat hippocampus", "result": "36.1 ± 5", "unit": "nM"}, {"measurement": "Ki", "setting": "[1]; rat spinal cord", "result": "48.1 ± 5.5", "unit": "nM"}, {"measurement": "Ki", "setting": "[1]; rat striatum and spinal cord (range over both)", "result": "44 to 48", "unit": "nM"}, {"measurement": "Ki", "setting": "[1]; rat striatum", "result": "44.1 ± 4.9", "unit": "nM"}, {"measurement": "Scatchard analysis of saturation curves (type of interaction)", "setting": "[2]; bovine membranes, compound (II) 20 nM (FIG. 1)", "result": "competitive interaction showing a decline in the apparent affinity without changes in the maximal number of sites (Bmax)"}, {"measurement": "Ki", "setting": "[2]; read-out: Ki, inhibition of 3H-FNZ binding, bovine cerebral cortical membranes, 0.6 nM 3H-FNZ, 4° C., 60 min, n=7", "result": "12 ± 1.7", "unit": "nM"}, {"measurement": "Ki", "setting": "[3]; rat cerebellum, n=3", "result": "17 ± 1.5", "unit": "nM"}, {"measurement": "Ki", "setting": "[3]; rat cerebral cortex, n=5", "result": "17.2 ± 3.7", "unit": "nM"}, {"measurement": "tail-flick latency (TFL)", "setting": "rats; rats, 100 μg/kg, 1 h after i.p., median (interquartile), n=11, vehicle 3.2 s", "result": 3.5, "unit": "s"}, {"measurement": "TFL (in words)", "setting": "rats; rats, i.p., 100 μg/kg", "result": "did not alter TFL"}, {"measurement": "analgesic effects", "setting": "rats; up to 10 mg/kg as worded", "result": "did not evidence anticonvulsant, myorelaxant, amnesic or analgesic effects"}, {"measurement": "displacement of [3H]-dihidroalprenolol binding", "setting": "β adrenergic receptors", "result": "did not displace"}, {"measurement": "Ki", "setting": "[4]", "result": 20, "unit": "nM"}]}
